Assay results taken from PubChem BioAssay (NCI).
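Each compound was tested at five concentrations against cells in 96-well plates for 48 hours. GI50 is the concentration that inhibits growth by half. Definition used: TGI = concentration required for complete inhibition of growth.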

What was measured:
Test in all cases: growth of human tumour cells (NCI), 48 h
[1] = tested on: SR leukemia
[2] = tested on: U251 CNS
[3] = tested on: NCI-H522 lung
[4] = tested on: COLO 205 colon
[5] = tested on: IGROV1 ovarian
[6] = tested on: OVCAR-5 ovarian
[7] = tested on: DU-145 prostate
[8] = tested on: KM12 colon
[9] = tested on: SK-MEL-28 melanoma
[10] = tested on: RXF 393 renal

| SMILES | TGI [1] | TGI [2] | TGI [3] | TGI [4] | TGI [5] | TGI [6] | TGI [7] | TGI [8] | TGI [9] | TGI [10] | GI50 [1] | GI50 [2] | GI50 [3] | GI50 [4] | GI50 [6] | GI50 [7] | GI50 [8] | GI50 [9] | GI50 [10] |
| --- | --- | --- | --- | --- | --- | --- | --- | --- | --- | --- | --- | --- | --- | --- | --- | --- | --- | --- | --- |
| [N-]=[N+]=CC(=O)OCC1SCCCS1 | > 100 µM | > 100 µM | > 100 µM | > 100 µM | > 100 µM | > 100 µM | > 100 µM | > 100 µM | > 100 µM | > 100 µM | – | – | – | – | – | – | – | – | – |
| NC(=S)Nc1[nH]c(=S)nc2c1SC1=N/C(=C\c3ccco3)C(=O)N12 | > 70.7 µM | > 100 µM | > 100 µM | > 100 µM | > 100 µM | > 100 µM | > 100 µM | > 100 µM | > 100 µM | > 100 µM | – | – | – | – | – | – | – | – | – |
| C#CC(F)(F)[C@]1(O)CC[C@H]2[C@@H]3CCC4=CC(=O)CCC4=C3[C@@H](c3ccc(C(C)=O)cc3)C[C@@]21C | 37 µM | > 92.9 µM | 0.0331 µM | 38.6 µM | – | > 100 µM | 95.1 µM | 52.9 µM | > 72.4 µM | 39.8 µM | 0.868 µM | 17.7 µM | 0.0167 µM | 13.1 µM | 28.3 µM | 20.1 µM | 0.123 µM | 16.2 µM | 13.4 µM |
| CC[C@H](C)[C@H]1NC(=O)[C@@H](NC(=O)[C@@H](CC(C)C)N(C)CC2CCCN2C(=O)C(C)=O)[C@@H](C)OC(=O)[C@H](Cc2ccc(OC)cc2)N(C)C(=O)C2CCCN2C(=O)[C@H](CC(C)C)NC(=O)[C@@H](C)C(=O)[C@H](C(C)C)OC(=O)C[C@@H]1O (some centres undefined) | 0.00471 µM | 0.00534 µM | 0.0523 µM | 0.00879 µM | 0.016 µM | 0.014 µM | 0.0032 µM | 0.0105 µM | 0.0303 µM | 0.00299 µM | – | – | – | – | – | – | – | – | – |
| O=c1[nH]c(=O)n(Cc2ccccc2CO)cc1Sc1ccccc1 | > 100 µM | > 100 µM | 3.81 µM | > 100 µM | 29 µM | > 100 µM | > 100 µM | > 100 µM | > 100 µM | 80.9 µM | – | – | – | – | – | – | – | – | – |
| O=C1C=C(Br)c2c(Br)sc(Br)c21 | > 100 µM | 41.3 µM | 3.99 µM | 15.9 µM | 16.5 µM | 41.3 µM | 29 µM | 37.3 µM | > 56.2 µM | 25.7 µM | – | – | – | – | – | – | – | – | – |
| OC1(c2cc3ccccc3s2)CCCCC1 | > 100 µM | > 100 µM | 65.6 µM | 41.8 µM | > 100 µM | > 100 µM | > 100 µM | > 100 µM | > 100 µM | > 100 µM | – | – | – | – | – | – | – | – | – |
| Cc1ccc(N2CCc3c(C)c(C#N)c4nc5ccccc5n4c32)cc1 | > 100 µM | > 100 µM | > 100 µM | > 100 µM | > 100 µM | > 100 µM | > 100 µM | – | > 100 µM | > 100 µM | – | – | – | – | – | – | – | – | – |
| COC(OC)C1OC(CO)C(n2ccc(N)nc2=O)C1O (centres undefined) | > 100 µM | > 100 µM | > 100 µM | > 100 µM | > 100 µM | > 100 µM | > 100 µM | > 100 µM | > 100 µM | > 100 µM | – | – | – | – | – | – | – | – | – |
| O=c1c2cc(I)ccc2nc(Sc2ncccc2[N+](=O)[O-])n1Cc1ccccc1 | > 100 µM | > 100 µM | 78 µM | > 100 µM | > 100 µM | > 100 µM | > 100 µM | > 100 µM | > 100 µM | > 100 µM | – | – | – | – | – | – | – | – | – |
| CN(C)CCNC(=O)c1cccc2nc3c(nc12)-c1ccccc1C3=O | > 21.5 µM | 45.6 µM | 30.7 µM | 58.5 µM | > 71.1 µM | 90.1 µM | 70 µM | 33.2 µM | 37.3 µM | 34.4 µM | – | – | – | – | – | – | – | – | – |
| O=c1[nH]nc(-c2ccccc2)n1/N=C/c1c(O)ccc2ccccc12 | > 100 µM | 86.4 µM | > 100 µM | > 100 µM | > 100 µM | > 100 µM | > 100 µM | > 100 µM | > 100 µM | 85.2 µM | – | – | – | – | – | – | – | – | – |
| CNC(=O)c1cc(NC(=O)N(CCC#N)CCN(C(=O)N[C@@H](Cc2ccccc2)C(=O)N[C@@H](CC(C)C)C(=O)NC)c2ccccc2)ccc1OC | 68.9 µM | > 100 µM | – | > 100 µM | > 73.2 µM | > 100 µM | > 100 µM | > 100 µM | > 61.9 µM | 99.4 µM | – | – | – | – | – | – | – | – | – |
| CCc1ccc2[nH]c(O)c(-c3[nH]c4ccccc4c3N=O)c2c1 | > 100 µM | 21.5 µM | 16 µM | 23.2 µM | 18.6 µM | 58.2 µM | 22.5 µM | 4.51 µM | 26.7 µM | 11.2 µM | – | – | – | – | – | – | – | – | – |
| Oc1ccc(SCc2cc(O)c(O)c(O)c2)cc1 | > 100 µM | > 100 µM | 61.4 µM | 36.9 µM | 57.8 µM | 50.7 µM | > 100 µM | 42.6 µM | > 100 µM | > 100 µM | – | – | – | – | – | – | – | – | – |
| O=C1Cc2c([nH]c3ccc(Br)cc23)-c2ccccc2N1 | > 100 µM | > 100 µM | > 100 µM | > 100 µM | > 100 µM | > 100 µM | > 100 µM | > 100 µM | > 100 µM | > 100 µM | – | – | – | – | – | – | – | – | – |
| CSc1c(C#N)c(=O)[nH]c2n[nH]c(C)c12 | > 100 µM | > 100 µM | – | > 100 µM | – | > 100 µM | > 100 µM | > 100 µM | > 100 µM | > 100 µM | – | – | – | – | – | – | – | – | – |
| CC(C)(C)C1(COC(=O)c2ccc(N)cc2)COC1 | > 100 µM | > 100 µM | > 100 µM | > 100 µM | > 100 µM | > 100 µM | > 100 µM | > 100 µM | > 100 µM | > 100 µM | – | – | – | – | – | – | – | – | – |
| C=CCSC1=N/C(=C\c2ccccc2)C(=O)N1CC=C | > 61.6 µM | > 100 µM | > 100 µM | > 100 µM | > 100 µM | > 100 µM | > 100 µM | > 100 µM | > 100 µM | 60.6 µM | – | – | – | – | – | – | – | – | – |
